Results taken from ChEMBL document CHEMBL4229453, “New lead elements for histamine H3 receptor ligands in the pyrrolo[2,3-d]pyrimidine class” (Bioorg Med Chem Lett, 2018).

Experiments:
[1] = biological target: T1, Histamine H3 receptor (Homo sapiens, UniProt Q9Y5N1); assay: Displacement of [3H]Nalpha-methylhistamine from human H3 receptor
[2] = biological target: Histamine H4 receptor (Homo sapiens) (UniProt Q9H3N8); assay: Displacement of [3H]histamine from human H4 receptor at 1 uM relative to control
[3] = biological target: T1, Histamine H3 receptor; assay: Displacement of [3H]Nalpha-methylhistamine from human H3 receptor at 1 uM relative to control

T1 sequence (Q9Y5N1 whole entry): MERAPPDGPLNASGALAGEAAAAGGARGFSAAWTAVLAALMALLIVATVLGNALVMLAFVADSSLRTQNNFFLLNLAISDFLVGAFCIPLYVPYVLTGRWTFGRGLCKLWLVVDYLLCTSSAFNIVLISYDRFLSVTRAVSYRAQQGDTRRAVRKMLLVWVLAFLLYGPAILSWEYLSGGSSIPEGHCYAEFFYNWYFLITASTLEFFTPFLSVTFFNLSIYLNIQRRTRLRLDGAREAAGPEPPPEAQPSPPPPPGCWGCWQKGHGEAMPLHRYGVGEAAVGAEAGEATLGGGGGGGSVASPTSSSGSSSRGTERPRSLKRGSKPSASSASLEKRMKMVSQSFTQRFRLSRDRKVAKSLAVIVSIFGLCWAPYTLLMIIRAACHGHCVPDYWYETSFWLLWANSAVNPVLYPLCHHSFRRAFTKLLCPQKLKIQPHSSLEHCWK

SMILES | Ki [1] | inhibition [2] | inhibition [3]
Clc1nc(N2CCC(N3CCOCC3)CC2)c2ccn(Cc3ccccc3)c2n1 | 1.07 µM | < 80% | < 80%
Clc1nc(N2CCC(N3CCCCC3)CC2)c2ccn(Cc3ccccc3)c2n1 | 0.49 µM | < 80% | 96%
CN1CCN(c2nc(Cl)nc3c2ccn3Cc2ccccc2)CC1 | – | < 80% | < 80%
Clc1nc(N2CCC(N3CCCCC3)CC2)c2ccn(Cc3ccc4ccccc4c3)c2n1 | 0.126 µM | < 80% | 95%
CN1CCN(c2nc(Cl)nc3c2ccn3Cc2cccc3ccccc23)CC1 | – | < 80% | < 80%
Clc1nc(N2CCC(N3CCCCC3)CC2)c2ccn(Cc3cccc4ccccc34)c2n1 | 0.148 µM | < 80% | 95%
Clc1nc(N2CCC(N3CCOCC3)CC2)c2ccn(Cc3ccc4ccccc4c3)c2n1 | – | < 80% | < 80%
Clc1nc(N2CCC(N3CCOCC3)CC2)c2ccn(Cc3cccc4ccccc34)c2n1 | – | < 80% | < 80%

Further lines, results first:

Ki [1] | inhibition [2] | inhibition [3] | SMILES
– | < 80% | < 80% | CN1CCN(c2nc(Cl)nc3c2ccn3Cc2ccc3ccccc3c2)CC1
– | < 80% | < 80% | Clc1nc(NCCN2CCOCC2)c2ccn(Cc3cccc4ccccc34)c2n1
– | < 80% | < 80% | Clc1nc(NCCN2CCOCC2)c2ccn(Cc3ccccc3)c2n1
– | < 80% | < 80% | Clc1nc(NCCN2CCOCC2)c2ccn(Cc3ccc4ccccc4c3)c2n1
